Earlier results as cited in US20070028930A1, “Active agent and formulations to minimize or alleviate bladder urgency and irritation and/or to enhance sexual function” (Delithe Natural Products Inc., priority 2005, published 2007).

System: bladder
Settings: 10 mg/kg dose, rats

CNCC[C@H](Oc1cccc2ccccc12)c1cccs1 [Duloxetine]
efficacy in in vivo bladder studies: effective
